# Literature values in article PMC6972991 (Chemistry (Weinheim an Der Bergstrasse, Germany), 2019).
smiles,measurement,value
O=S(=O)(O)c1ccccc1 [benzenesulfonic acid],pKa,≈ 4
